Columns and labels:
TRA-1-60+ SW1990GR cells = assay: High content screen / immunofluorescent staining of TRA-1-60+ cells; type: cell-based
Procedure: Immunofluorescent staining. Primary antibodies were TRA-1-60 antibody (BD, 1:200), biotin conjugated TRA-1-60 antibody (eBioscience, 1:200). Secondary antibodies were donkey anti-mouse Alexa-efluor594 (Life technologies, 1:500) or streptavidin conjugated Alexa Fluor® 594 (Life technologies, 1:200).
Cells were fixed with 10% formalin for 20 min at room temperature. After 1 hour blocking in PBS with 5% horse serum and 0.3% triton-X100, primary antibodies were added to cells and incubated overnight at 4° C. Secondary antibody incubation was 1.5 hours at room temperature.
Chemical library screening. The Prestwick library of FDA approved drugs (˜1280 chemicals) plus a collection of drugs in clinical trials was used for the screen on SW1990GR cells.
For screening, SW1990GR cells were plated in 384-well plates (5000 cells/well). After overnight incubation, chemicals were added at 1 μM or 10 μM in duplicate. After 5 days of treatment, plates were stained with TRA-1-60 antibody and analyzed with MetaXpress High Content Image Acquisition and Analysis System (Molecular Devices). Wells treated with DMSO were set as control. The reduction was calculated by subtracting the percentage of TRA-1-60^+ cells in the chemical-treated wells from that of control wells. Standard deviation of TRA-1-60^+ percentage in control wells was calculated and 3-fold of this value was taken as threshold to pick up the primary hit.

DU145 cell line = assay: Flow cytometry of TRA-1-81+ cells; type: cell-based; conditions: DU145, 25 nM CYM, 5 days
Procedure: (§1) Flow cytometry. TRA-1-60 PerCP-efluor710 (eBioscience, 1:50) and TRA-1-81 PE (eBioscience, 1:100) were used. Cells were blocked with 5% FBS plus mouse IgM isotype control antibody (eBioscience, 1:100) at room temperature for 15 min, then stained on ice for 30 min. Stained cells were resuspended in PBS containing 300 nM DAPI and proceeded to analysis or sorting. Cell apoptosis was analyzed with FITC-AnnexinV labeling reagent (BD). Flow cytometry analysis was carried out on BD FACS Calibur with FlowJo 9.8 software. Sorting was performed with FACSVantage SE (Becton Dickinson).

HCT116 cell line = assay: Flow cytometry of TRA-1-81+ cells; type: cell-based; conditions: HCT-116, 25 nM CYM, 5 days
Procedure: as §1

TRA-1-81+ SW1990 cells = assay: Flow cytometry of TRA-1-81+ cells; type: cell-based
Procedure: as §1

TRA-1-81+ SW1990GR cells = assay: Flow cytometry of TRA-1-81+ cells; type: cell-based
Procedure: as §1

SW1990 cells = assay: Growth curve / proliferation assay; type: cell-based; conditions: SW1990, 50 nM CYM
Procedure: (§2) To quantify growth, Cells were seeded into 96-well plates (2000/well). After overnight incubation, medium with indicated drug was refreshed. Cell proliferation was quantified every 2 days using CellTiter 96® AQueous Non-Radioactive Cell Proliferation Assay (Promega).

SW1990GR cells = assay: Growth curve / proliferation assay; type: cell-based; conditions: 25 nM CYM
Procedure: as §2

SW1990 xenograft tumors = assay: Luciferase-labeled SW1990 xenograft in nude mice; type: in vivo
Procedure: CYM suppresses TRA-1-60 expression and blocks tumor growth in vivo. Next it was sought to validate the effects of CYM in vivo, using a xenograft model with luciferase-labeled SW1990 cells propagated in nude mice. Tumor-harboring mice were separated into 4 groups and treated with PBS (control), 2 mg/kg CYM, 50 mg/kg GEM, or 2 mg/kg CYM plus 50 mg/kg GEM through intraperitoneal injections twice per week. Luciferase intensity was quantified twice per week and normalized with the value obtained from the starting day. […] Consistent with imaging, of the four groups, mice treated with GEM plus CYM generated xenograft tumors with the smallest size (FIG. 6C) and weight (FIG. 6D).
Tissue samples were fixed with 4% paraformaldehyde overnight at 4° C., washed with 70% ethanol and then embedded in paraffin. After De-paraffin and rehydration, antigen retrieval was preceded in hot antigen retrieving buffer with a normal-pressure steamer for 30 min. blocking was proceeded 1 hour at room temperature in PBS containing 1% horse serum. Primary antibody was stained overnight at 4° C. in PBS plus 0.5% Triton X-100 and 5% horse serum. Secondary antibody was incubated at room temperature for 1.5 hours.
Mouse Procedures. To assess in vivo effects of Cymarin (CYM), Luciferase-labelled SW1990 cells were transplanted to nude mice subcutaneously. Each mouse received four injections (5×10^5 cells/site). 12 days later, mice were randomly separated into 4 groups and treated with PBS (control), GEM (50 mg/kg bodyweight), CYM (2 mg/kg bodyweight) or GEM (50 mg/kg bodyweight) plus CYM (2 mg/kg bodyweight) twice weekly via intraperitoneal injection. Image acquisition was performed twice weekly with Xtreme Optical and X-ray small animal imaging system. Luciferin potassium salt (Regis), substrate of luciferase, was applied at 2 mg/25 g bodyweight in 150 μl PBS. Isoflurane (Henry Schein) was used for anesthesia during imaging.

[1] = tested on: UGT1A10 overexpressing SW1990 cells; assay: Cell viability of UGT1A10 overexpressing cells; type: cell-based; conditions: 50 nM CYM, control vs UGT1A10 overexpressing SW1990
Excerpt: To determine whether UTG1A10 is sufficient to induce TRA-1-81 expression and chemoresistance, UGT1A10 was overexpressed ectopically in SW1990 cells (UGT-OE). Cells expressing firefly luciferase were used as control (CTRL). […] Indeed, the viability of UGT-OE cells is higher than control cells following GEM treatment (FIG. 4G). […] In summary, UGT1A10 is both required and sufficient to enhance TRA-1-60 and TRA-1-81 expression and chemoresistance.
LentiLuc-blast and LentiUGT1A10-blast plasmid were generated based on LentiCas9-blast vector (Addgene, 52926). Luciferasec DNA was cloned from pGL3-promoter plasmid (Promega) with PCR amplification and inserted between AgeI and BamHI sites. UGT1A10 cDNA was PCR amplified from plasmid purchased from Dharmacon (MHS6278-202756114) and inserted between XbaI and BamHI sites. Primers were used as below: […]
Cell viability, colony formation, sphere formation and growth curve. To quantify viability, cells were plated into 96-well plates (6000/well) one night before treatment. Drugs were then added in indicated dose for 5 days. After fixation, cell nuclei were stained with DAPI (Invitrogen). Plates were analyzed using MetaXpress High Content Image Acquisition and Analysis System (Molecular Devices).

hESCs = conditions: cited from earlier work

## CO[C@H]1C[C@H](O[C@H]2CC[C@]3(C=O)[C@H]4CC[C@]5(C)[C@@H](C6=CC(=O)OC6)CC[C@]5(O)[C@@H]4CC[C@]3(O)C2)O[C@H](C)[C@H]1O [CYM, Cymarin]
TRA-1-60+ SW1990GR cells; 25 nM CYM, 5 days, SW1990GR, from ~18%
  percentage of TRA-1-60+ cells after treatment: less than 5%
TRA-1-60+ SW1990GR cells; SW1990GR
  relative potency in TRA-1-60 inhibition: higher potency than Ouabain
  validation of primary hit: able to be validated
TRA-1-60+ SW1990GR cells; read-out: IC50, decrease of percentage of TRA-1-60+ cells
  IC50: 15.2 ± 4.3 nM
DU145 cell line
  percentage of TRA-1-81+ cells: decreased
HCT116 cell line
  percentage of TRA-1-81+ cells: decreased
TRA-1-81+ SW1990 cells; Homo sapiens, SW1990, read-out: IC50, repression of TRA-1-81+ cells
  IC50: 6.3 ± 2.2 nM
TRA-1-81+ SW1990 cells; SW1990, 25 nM CYM
  TRA-1-81+ cells in time course: decrease of TRA-1-81^+ cells over time
TRA-1-81+ SW1990 cells; SW1990, 5 days, 25 nM CYM or 100 nM GEM plus 25 nM CYM
  percentage of TRA-1-81+ cells with or without acute GEM: decreased the percentage of TRA-1-81^+ cells effectively regardless of GEM
TRA-1-81+ SW1990GR cells; 25 nM CYM
  TRA-1-81+ cells in time course: decrease of TRA-1-81^+ cells over time
TRA-1-81+ SW1990GR cells; flow cytometry, read-out: IC50, decrease of percentage of TRA-1-81+ cells
  IC50: 5.1 ± 1.5 nM
SW1990 cells
  proliferation: significantly decreased the proliferation
SW1990GR cells
  proliferation: sufficient to block the proliferation
SW1990 xenograft tumors; 3 weeks, i.p. twice per week, GEM 50 mg/kg, CYM 2 mg/kg
  tumor growth (luciferase intensity): grew more slowly
SW1990 xenograft tumors; CYM administration in GEM-treated tumors, immunofluorescence
  percentage of TRA-1-60+ cells in xenograft tumors: ~13%
SW1990 xenograft tumors; TUNEL assay
  cell apoptosis in xenograft tumors (TUNEL+ cells): cell death increased
[1]
  effect of ectopic UGT1A10 expression on Cymarin anti-chemoresistant activity: partially rescues
hESCs
  effect on hESCs in a previous screen: differentiation inducer of hESCs

Reference: patent US20240277744A1, “TREATMENT OF CHEMORESISTANT CANCER CELLS” (Cornell University, priority 2023, published 2024)
